Holding throughout (format): physicochemical
The nature of data set [1]: In vitro drug release through porous membrane, Franz diffusion cells. The note with it: within 24 hours of NPS application; 0.5% w/v Volpo in PBS (pH 7.4), 32° C. The protocol: In vitro drug release studies of KP-NPS, SP-NPS, SP+KP-NPS, KP-NPS-OA, SP-NPS-OA and SP+KP-NPS-OA were performed to investigate the amount of drug released from NPS or NPS-OA. A porous membrane of MWCO at 50,000 Da (SIGMA-ALDRICH Co., St. Louis, Mo.) was used. The membrane was mounted between the donor and receiver compartments of Franz diffusion cells (N. Ghouchi Eskandar, S. Simovic, C. Prestidge, Nanoparticle coated submicron emulsions: sustained in-vitro release and improved dermal delivery of All-trans-retinol, Pharm Res, 26 (2009) 1764-1775).
The NPS dispersion was applied evenly on the surface of the membrane in the donor compartment. […] At predetermined time intervals (e.g., 1, 2, 4, 6, 8, 12, 22, 24, 48 and 72 hours), 0.5 ml samples were collected from the receiver compartment and replaced with fresh buffer solution. The samples collected from receiver compartment were analyzed for drug content using the HPLC method.

Data set [2] can be described thus: Solubility test in selected receiver fluids.
The nature of data set [3]: Entrapment efficiency using vivaspin columns. The settings on record: in NPS; unaffected by surface modification. How it is done:
The NPS and NPS-OA (0.5 ml) were placed on top of the vivaspin centrifuge filter membrane and centrifuged at 4,500 rpm for fifteen (15) minutes. The amount of SP and KP present in the aqueous phase was estimated using HPLC.

Where only a bound is given, the exact number is not on record here.

Regarding `CC(C(=O)O)c1cccc(C(=O)c2ccccc2)c1` (centres unmarked) [KP, Ketoprofen], the “release of drug from NPS” value in data set [1] is above 75%.
For Spantide II, the “release of drug from NPS” value in data set [1] is given as 34%. Besides, the solubility result is recorded as “insoluble” in data set [2] (0.1% w/v Volpo 20 in PBS (pH 7.4), 1 mg/ml); “soluble” in data set [2] (0.5% w/v Volpo 20 in PBS (pH 7.4), 1 mg/ml); “soluble” in data set [2] (5% w/v BSA in PBS (pH 7.4)); “precipitation was observed” in data set [2] (SP and KP mixed together in PBS (pH 7.4) containing 10% w/v ethanol); “soluble” in data set [2] (ethanol). Also, the entrapment efficiency in data set [3] is 92.81%±2.17.

The values are drawn from US8865206B1, “Surface modified multilayered nanostructures for dermal delivery” (Florida A&M University, priority 2010, dated 2014).
